Test [1] concerns the target T1, recombinant human adrenergic beta 1 receptors (Homo sapiens, UniProt P08588).
T1 construct: purchased Euroscreen
Kind of test: Adrenergic β1 selectivity binding assay ([125I]-Iodocyanopindolol). The conditions noted are these: inhibition of [125I]-Iodocyanopindolol binding, human β1 membranes; read-out: β1 bind p IC50 (converted). How it is done:
Membranes containing recombinant human adrenergic beta 1 receptors were obtained from Euroscreen. These were diluted in Assay Buffer (50 mM HEPES, 1 mM EDTA, 120 mM NaCl, 0.1% gelatin, pH 7.4) to provide a final concentration of membranes that gave a clear window between maximum and minimum specific binding.
Assays were performed in U-bottomed 96-well polypropylene plates. 10 μL [^125I]-Iodocyanopindolol (0.036 nM final concentration) and 10 μL of test compound (10× final concentration) were added to each test well. For each assay plate 8 replicates were obtained for [^125I]-Iodocyanopindolol binding in the presence of 10 μl vehicle (10% (v/v) DMSO in Assay Buffer; defining maximum binding) or 10 μl Propranolol (10 μM final concentration; defining non-specific binding (NSB)). Membranes were then added to achieve a final volume of 100 μL. The plates were incubated for 2 h at room temperature and then filtered onto PEI coated GF/B filter plates, pre-soaked for 1 h in Assay Buffer, using a 96-well plate Tomtec cell harvester. Five washes with 250 μL wash buffer (50 mM HEPES, 1 mM EDTA, 120 mM NaCl, pH 7.4) were performed at 4° C. to remove unbound radioactivity. The plates were dried then sealed from underneath using Packard plate sealers and MicroScint-O (50 μl) was added to each well. The plates were sealed (TopSeal A) and filter-bound radioactivity was measured with a scintillation counter (TopCount, Packard BioScience) using a 3-minute counting protocol.
Total specific binding (B0) was determined by subtracting the mean NSB from the mean maximum binding. NSB values were also subtracted from values from all other wells. […] Data was fitted to a four parameter logistic equation to determine the compound potency, which was expressed as pIC50 (negative log molar concentration inducing 50% inhibition of [^125I]-Iodocyanopindolol binding).

Another test has as its target T2, Adrenergic β2 (Homo sapiens, UniProt P07550).
T2 construct: Adherent H292 cells were removed from tissue culture flasks; endogenous in cells; host or cells: H292 cells
Kind of test: Adrenergic β2 mediated cAMP production in H292 cells (AlphaScreen cAMP detection). Format: cell-based. Conditions: for β2 Int Act: Intrinsic Activity, fraction relative to the maximum activity determined for formoterol; for EC50: cAMP production, 60 min at room temperature, 300 μM rolipram, read-out: β2 pEC50 (converted). How it is done: H292 cells were grown in 225 cm2 flasks incubator at 37° C., 5% CO2 in RPMI medium containing, 10% (v/v) FBS (foetal bovine serum) and 2 mM L-glutamine.
Adherent H292 cells were removed from tissue culture flasks by treatment with Accutase™ cell detachment solution for 15 min. Flasks were incubated for 15 min in a humidified incubator at 37° C., 5% CO2. Detached cells were re-suspended in RPMI media (containing 10% (v/v) FBS and 2 mM L-glutamine) at […]. 10000 cells in 100 μl were added to each well of a tissue-culture-treated 96-well plate and the cells incubated overnight in a humidified incubator at 37° C., 5% CO2. The culture media was removed and cells were washed twice with 100 μl assay buffer and replaced with 50 μL assay buffer (HBSS solution containing 10 mM HEPES pH7.4 and 5 mM glucose). Cells were rested at room temperature for 20 min after which time 25 μl of rolipram (1.2 mM made up in assay buffer containing 2.4% (v/v) dimethylsulphoxide) was added. Cells were incubated with rolipram for 10 min after which time test compounds were added and the cells were incubated for 60 min at room temperature. The final rolipram concentration in the assay was 300 μM and final vehicle concentration was 1.6% (v/v) dimethylsulphoxide. The reaction was stopped by removing supernatants, washing once with 100 μL assay buffer and replacing with 50 μL lysis buffer. The cell monolayer was frozen at −80° C. for 30 min (or overnight).
AlphaScreen™ cAMP Detection
The concentration of cAMP (cyclic adenosine monophosphate) in the cell lysate was determined using AlphaScreen™ methodology. The frozen cell plate was thawed for 20 min on a plate shaker then 10 μl of the cell lysate was transferred to a 96-well white plate. 40 μL of mixed AlphaScreen™ detection beads pre-incubated with biotinylated cAMP, was added to each well and the plate incubated at room temperature for 10 h in the dark. The AlphaScreen™ signal was measured using an EnVision spectrophotometer (Perkin-Elmer Inc.) with the recommended manufacturer's settings. cAMP concentrations were determined by reference to a calibration curve determined in the same experiment using standard cAMP concentrations. Concentration response curves for agonists were constructed and data was fitted to a four parameter logistic equation to determine both the pEC50 and Intrinsic Activity. Intrinsic Activity was expressed as a fraction relative to the maximum activity determined for formoterol in each experiment.
For orientation: Changes in cAMP serve as a functional read-out for many G protein-coupled receptors.

Counter-ions that a name gives are not always drawn.

T2 sequence (P07550 whole entry): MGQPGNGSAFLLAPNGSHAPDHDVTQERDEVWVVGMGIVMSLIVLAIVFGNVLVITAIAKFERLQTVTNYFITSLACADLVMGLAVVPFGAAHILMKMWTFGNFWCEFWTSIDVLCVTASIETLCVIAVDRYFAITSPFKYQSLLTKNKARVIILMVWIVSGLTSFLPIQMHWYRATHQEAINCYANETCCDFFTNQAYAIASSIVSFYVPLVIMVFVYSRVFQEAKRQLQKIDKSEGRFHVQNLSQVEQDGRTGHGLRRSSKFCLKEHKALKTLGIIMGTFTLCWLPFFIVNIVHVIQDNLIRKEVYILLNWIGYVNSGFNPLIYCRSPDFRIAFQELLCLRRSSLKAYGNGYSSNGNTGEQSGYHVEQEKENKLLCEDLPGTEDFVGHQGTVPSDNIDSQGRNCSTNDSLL
T1 sequence (P08588 whole entry): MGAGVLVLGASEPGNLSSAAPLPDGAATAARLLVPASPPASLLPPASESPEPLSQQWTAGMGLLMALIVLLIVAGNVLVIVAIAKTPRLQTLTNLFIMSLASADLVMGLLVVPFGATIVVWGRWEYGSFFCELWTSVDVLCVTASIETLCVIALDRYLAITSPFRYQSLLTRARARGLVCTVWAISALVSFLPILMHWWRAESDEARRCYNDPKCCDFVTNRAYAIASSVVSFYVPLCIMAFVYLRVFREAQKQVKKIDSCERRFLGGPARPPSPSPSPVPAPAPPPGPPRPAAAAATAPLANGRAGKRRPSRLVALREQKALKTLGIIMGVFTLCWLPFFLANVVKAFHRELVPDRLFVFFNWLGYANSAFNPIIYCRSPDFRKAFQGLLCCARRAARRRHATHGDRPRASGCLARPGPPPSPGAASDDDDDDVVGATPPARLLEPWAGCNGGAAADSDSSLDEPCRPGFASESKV

As usually defined, the IC50 is the concentration that gives 50% inhibition. For the compound `Cn1nccc1-c1cccc(CCOCCC(=O)N(CCNCCc2ccc(O)c3c2OCC(=O)N3)C2CCCCC2)c1` [Example 03, N-Cyclohexyl-N-(2-(2-(5-hydroxy-3-oxo-3,4-dihydro-2H-benzo[b][1,4]oxazin-8-yl)ethylamino)ethyl)-3-(3-(1-methyl-1H-pyrazol-5-yl)phenethoxy)propanamide Trifluoroacetic Acid Salt], in test [1], the IC50 was greater than 10000 nM. At Adrenergic β2, the “β2 Int Act” value worked out at 0.81 and the EC50 is 10 nM.
In the case of `CCn1cc(-c2cccc(CCOCCC(=O)N(CCNCCc3ccc(O)c4c3OCC(=O)N4)C3CCCCC3)c2)nn1` [Example 04, N-Cyclohexyl-3-(3-(1-ethyl-1H-1,2,3-triazol-4-yl)phenethoxy)-N-(2-(2-(5-hydroxy-3-oxo-3,4-dihydro-2H-benzo[b][1,4]oxazin-8-yl)ethylamino)ethyl)propanamide Trifluoroacetic Acid Salt], the IC50 in test [1] was greater than 10000 nM. Further, at Adrenergic β2, the “β2 Int Act” value is given as 0.96 and the EC50 is 12.6 nM.
On the same counts, the results for `Cn1cc(-c2cccc(CCOCCC(=O)N(CCNCCc3ccc(O)c4c3OCC(=O)N4)C3CCCCC3)c2)nn1` [Example 05, N-Cyclohexyl-N-(2-(2-(5-hydroxy-3-oxo-3,4-dihydro-2H-benzo[b][1,4]oxazin-8-yl)ethylamino)ethyl)-3-(3-(1-methyl-1H-1,2,3-triazol-4-yl)phenethoxy)propanamide Trifluoroacetic Acid Salt] are greater than 7940 nM, 0.87 and 7.94 nM.
On the same counts, the results for `Cn1nnc(-c2cccc(CCOCCC(=O)N(CCNCCc3ccc(O)c4c3OCC(=O)N4)C3CCCCC3)c2)n1` [Example 07, N-Cyclohexyl-N-(2-(2-(5-hydroxy-3-oxo-3,4-dihydro-2H-benzo[b][1,4]oxazin-8-yl)ethylamino)ethyl)-3-(3-(2-methyl-2H-tetrazol-5-yl)phenethoxy)propanamide Trifluoroacetic Acid Salt] are greater than 10000 nM, 0.92 and 15.8 nM.
The matching figures for `Cn1nnnc1-c1cccc(CCOCCC(=O)N(CCNCCc2ccc(O)c3c2OCC(=O)N3)C2CCCCC2)c1` [Example 08, N-Cyclohexyl-N-(2-(2-(5-hydroxy-3-oxo-3,4-dihydro-2H-benzo[b][1,4]oxazin-8-yl)ethylamino)ethyl)-3-(3-(1-methyl-1H-tetrazol-5-yl)phenethoxy)propanamide Trifluoroacetic Acid Salt]: greater than 10000 nM, 0.92 and 15.8 nM.
Take `CC(C)[C@@H](C)N(CCNCCc1ccc(O)c2c1OCC(=O)N2)C(=O)CCOCCc1cccc(-c2cnn(C)c2)c1` [Example 09, (R)—N-(2-(2-(5-Hydroxy-3-oxo-3,4-dihydro-2H-benzo[b][1,4]oxazin-8-yl)ethylamino)ethyl)-3-(3-(1-methyl-1H-pyrazol-4-yl)phenethoxy)-N-(3-methylbutan-2-yl)propanamide Trifluoroacetic Acid Salt]: the IC50 in test [1] is greater than 10000 nM. Also, at Adrenergic β2, the “β2 Int Act” value was 0.92 and the EC50 is 7.94 nM.
The matching figures for `O=C1COc2c(CCNCCN(C(=O)CCOCCc3cccc(-c4cnco4)c3)C3CCCCC3)ccc(O)c2N1` [Example 10, N-Cyclohexyl-N-(2-(2-(5-hydroxy-3-oxo-3,4-dihydro-2H-benzo[b][1,4]oxazin-8-yl)ethylamino)ethyl)-3-(3-(oxazol-5-yl)phenethoxy)propanamide Trifluoroacetic Acid Salt]: 6310 nM, 0.88 and 10 nM.
The matching figures for `CC(C)n1cc(-c2cccc(CCOCCC(=O)N(CCNCCc3ccc(O)c4c3OCC(=O)N4)C3CCCCC3)c2)nn1` [Example 12, N-Cyclohexyl-N-(2-(2-(5-hydroxy-3-oxo-3,4-dihydro-2H-benzo[b][1,4]oxazin-8-yl)ethylamino)ethyl)-3-(3-(1-isopropyl-1H-1,2,3-triazol-4-yl)phenethoxy)propanamide Trifluoroacetic Acid Salt]: greater than 10000 nM, 0.91 and 20 nM.
On the same counts, the results for `Cn1cc(-c2cc(CCOCCC(=O)N(CCNCCc3ccc(O)c4c3OCC(=O)N4)C3CCCCC3)ccc2F)cn1` [Example 13, N-Cyclohexyl-3-(4-fluoro-3-(1-methyl-1H-pyrazol-4-yl)phenethoxy)-N-(2-(2-(5-hydroxy-3-oxo-3,4-dihydro-2H-benzo[b][1,4]oxazin-8-yl)ethylamino)ethyl)propanamide Trifluoroacetic Acid Salt] are 6310 nM, 0.85 and 10 nM.
Regarding `O=C1COc2c(CCNCCN(C(=O)CCOCCc3cccc(-c4c[nH]nn4)c3)C3CCCCC3)ccc(O)c2N1` [Example 14, 3-(3-(1H-1,2,3-Triazol-4-yl)phenethoxy)-N-cyclohexyl-N-(2-(2-(5-hydroxy-3-oxo-3,4-dihydro-2H-benzo[b][1,4]oxazin-8-yl)ethylamino)ethyl)propanamide Trifluoroacetic Acid Salt], the IC50 in test [1] is greater than 10000 nM. For the same compound, at Adrenergic β2, the “β2 Int Act” value is listed as 0.95 and the EC50 was 7.94 nM.
`O=C1COc2c(CCNCCN(C(=O)CCOCCc3cccc(-c4nn[nH]n4)c3)C3CCCCC3)ccc(O)c2N1` [Example 15, 3-(3-(2H-Tetrazol-5-yl)phenethoxy)-N-cyclohexyl-N-(2-(2-(5-hydroxy-3-oxo-3,4-dihydro-2H-benzo[b][1,4]oxazin-8-yl)ethylamino)ethyl)propanamide Trifluoroacetic Acid Salt]: in test [1], the half-maximal inhibitory concentration (IC50) is greater than 10000 nM. Besides, at Adrenergic β2, the “β2 Int Act” value was found to be 0.83 and the EC50 was 12.6 nM.
On the same counts, the results for `Cn1cc(-c2cccc(CCOCCC(=O)N(CCNCCc3ccc(O)c4c3OCC(=O)N4)C3CCCCC3)c2F)cn1` [Example 16, N-Cyclohexyl-3-(2-fluoro-3-(1-methyl-1H-pyrazol-4-yl)phenethoxy)-N-(2-(2-(5-hydroxy-3-oxo-3,4-dihydro-2H-benzo[b][1,4]oxazin-8-yl)ethylamino)ethyl)propanamide Trifluoroacetic Acid Salt] are 6310 nM, 1.00 and 12.6 nM.
On the same counts, the results for `Cn1cc(-c2cc(F)cc(CCOCCC(=O)N(CCNCCc3ccc(O)c4c3OCC(=O)N4)C3CCCCC3)c2)cn1` [Example 17, N-Cyclohexyl-3-(3-fluoro-5-(1-methyl-1H-pyrazol-4-yl)phenethoxy)-N-(2-(2-(5-hydroxy-3-oxo-3,4-dihydro-2H-benzo[b][1,4]oxazin-8-yl)ethylamino)ethyl)propanamide Trifluoroacetic Acid Salt] are 5010 nM, 0.94 and 7.94 nM.
The matching figures for `O=C1COc2c(CCNCCN(C(=O)CCOCCc3cccc(-c4cnn(CC5CC5)c4)c3)C3CCCC3)ccc(O)c2N1` [Example 19, N-Cyclopentyl-3-(3-(1-(cyclopropylmethyl)-1H-pyrazol-4-yl)phenethoxy)-N-(2-(2-(5-hydroxy-3-oxo-3,4-dihydro-2H -benzo[b][1,4]oxazin-8-yl)ethylamino)ethyl)propanamide Trifluoroacetic Acid Salt]: 3980 nM, 0.95 and 6.31 nM.

The values above are taken from patent US8017602B2, “N-(2-(2-(5-hydroxy-3-oxo-3,4-dihydro-2H-benzo[b][1,4]oxazin-8-yl)ethylamino)ethyl)-3-(phenethoxy)propanamide derivatives, processes for their preparation, pharmaceutical compositions containing them and their use in therapy” (AstraZeneca AB, priority 2008, dated 2011).
